Test results from US11420970B1 (NOVARTIS AG, priority 2019, dated 2022).
Like-named read-outs stand apart in the source and are kept apart here.

How the values were obtained:
[1] = system: cellular H3K36me2 level in multiple myeloma cell line KMS11 (t(4;14)+); test: H3K36me2 cellular FRET assay in KMS11-Par line; type: cell-based; conditions: FRET, read-out: H3K36me2 FRET in KMS11-Par
Method: H3K36Me2 Cellular FRET Assay in KMS11-Par Line
Fluorescence Resonance Energy Transfer (FRET) assay was used to test the ability of candidate compound to reduce cellular H3K36me2 level in multiple myeloma cell line KMS11 (t(4;14)+) (Horizon Discovery Ltd.).
Cells were treated with tested compounds at the desired concentration for 48 hours. […] Histone extract was incubated with Eu labeled anti-H3K36me2 antibody (abcam #ab ab9049) and d2 labeled anti-H3 antibody (abcam #ab1791) for 1 hour at room temperature. A Eu labeled anti-H3 antibody (CISBIO #64CUS000) was used for loading control. The abundancy of H3K36me2 or total H3 was measured by fluorescence signal on Perkin Elmer Envison machine.

[2] = system: cellular H3K36me2 level in multiple myeloma cell line KMS11 (t(4;14)+); test: H3K36me2 cellular ELISA assay in KMS11-Par line; type: cell-based; conditions: Homo sapiens, KMS-11; KMS11-Par line (t(4;14)+), 72 hours treatment, ELISA; read-out: H3K36me2 ELISA in KMS11-Par
Summary of the method: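 After 72 h compound exposure, HCl-extracted histones from KMS11 (t(4;14)+) cells were probed by ELISA for H3K36me2 against total H3 with a chemiluminescence read-out. Cells were plated at 1,250/well in Opti-MEM plus B-27 and N2 the day before. A parallel CellTiter-Glo plate tracked viability.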

NSD2 [1-1365] = NSD2 [1-1365] (Homo sapiens (Human), UniProt O96028); test: LC-MS/MS-based NSD2 enzymatic assay (SAH production); type: biochemical; conditions: read-out: NSD2 IC50
Sequence of NSD2 [1-1365] (O96028 whole entry): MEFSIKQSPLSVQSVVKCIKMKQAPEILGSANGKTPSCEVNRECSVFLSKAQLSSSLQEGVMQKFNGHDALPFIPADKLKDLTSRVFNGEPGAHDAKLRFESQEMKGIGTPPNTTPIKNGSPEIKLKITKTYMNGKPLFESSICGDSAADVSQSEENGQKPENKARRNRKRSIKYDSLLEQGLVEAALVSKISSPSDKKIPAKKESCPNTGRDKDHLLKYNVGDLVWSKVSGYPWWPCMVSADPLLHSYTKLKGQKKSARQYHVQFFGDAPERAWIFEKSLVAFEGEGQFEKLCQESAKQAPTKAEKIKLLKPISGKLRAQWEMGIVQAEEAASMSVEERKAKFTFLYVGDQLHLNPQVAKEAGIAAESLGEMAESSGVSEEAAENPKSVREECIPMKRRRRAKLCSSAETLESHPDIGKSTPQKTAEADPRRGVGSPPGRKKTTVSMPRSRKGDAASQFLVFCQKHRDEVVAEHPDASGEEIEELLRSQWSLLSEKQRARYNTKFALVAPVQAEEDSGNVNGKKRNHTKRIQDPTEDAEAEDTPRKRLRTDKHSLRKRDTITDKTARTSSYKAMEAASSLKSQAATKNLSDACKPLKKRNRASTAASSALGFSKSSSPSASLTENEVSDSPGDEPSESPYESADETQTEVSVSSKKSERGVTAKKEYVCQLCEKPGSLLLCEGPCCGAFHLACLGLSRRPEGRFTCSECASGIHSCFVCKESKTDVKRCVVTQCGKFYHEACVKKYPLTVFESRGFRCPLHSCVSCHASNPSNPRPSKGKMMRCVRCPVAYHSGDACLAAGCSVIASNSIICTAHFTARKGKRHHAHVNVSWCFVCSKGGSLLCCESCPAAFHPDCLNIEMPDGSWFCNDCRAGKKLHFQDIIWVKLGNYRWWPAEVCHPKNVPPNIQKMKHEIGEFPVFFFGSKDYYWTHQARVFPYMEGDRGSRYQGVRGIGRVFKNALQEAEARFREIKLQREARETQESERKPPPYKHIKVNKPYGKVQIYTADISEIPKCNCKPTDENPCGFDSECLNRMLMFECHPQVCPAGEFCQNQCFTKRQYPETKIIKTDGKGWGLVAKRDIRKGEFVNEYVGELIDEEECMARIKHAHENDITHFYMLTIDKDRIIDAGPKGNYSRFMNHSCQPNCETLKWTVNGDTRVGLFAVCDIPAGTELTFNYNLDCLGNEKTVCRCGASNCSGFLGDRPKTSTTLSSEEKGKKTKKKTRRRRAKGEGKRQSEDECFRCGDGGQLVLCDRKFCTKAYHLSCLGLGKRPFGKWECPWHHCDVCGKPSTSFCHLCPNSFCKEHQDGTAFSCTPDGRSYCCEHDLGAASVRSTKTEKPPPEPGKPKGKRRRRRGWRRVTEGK
Summary of the method: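 SAH formed was measured by LC-MS/MS using d4-SAH as internal standard and an SAH calibration curve. Compounds were preincubated 20 min with NSD2 [1-1365] and SAM; mouse-liver nucleosome then started a 90 min room-temperature reaction (8 nM enzyme, 1 μM SAM, 400 nM nucleosome final, pH 8.0), stopped with TFA.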

[3] = Homo sapiens, KMS-11, KMS11-Par line, cellular H3K36me2 level
[4] = NSD2 biochemical activity, class symbols
[5] = KMS11-Par line, cellular H3K36me2 level
[6] = Homo sapiens, KMS-11, KMS11-Par line

IC50 [1, 3] [nM] | IC50 (NSD2 [1-1365]; [4]) [nM] | SMILES | also measured
1240 | 10 to 1000 | Nc1ncnc2c1ncn2Cc1cc(-c2ccc(F)c(F)c2)ncc1N1CCC[C@](N)(COCC(F)(F)F)C1 [Example 43, (R)-9-((5-(3-amino-3-((2,2,2-trifluoroethoxy)methyl)piperidin-1-yl)-2-(3,4-difluorophenyl)pyridin-4-yl)methyl)-9H-purin-6-amine] | 
1620 | 10 to 1000 | Nc1ncnc2c1ncn2Cc1cc(-c2ccc(F)cc2)ncc1N1CCC[C@](N)(COC(F)F)C1 [Example 44, (R)-9-((5-(3-amino-3-((difluoromethoxy)methyl)piperidin-1-yl)-2-(4-fluorophenyl)pyridin-4-yl)methyl)-9H-purin-6-amine] | 
705 | 10 to 1000 | Nc1ncnc2c1ncn2Cc1cc(-c2ccc(F)cc2)ncc1N1CCC[C@](N)(COCC(F)(F)F)C1 [Example 45, (R)-9-((5-(3-amino-3-((2,2,2-trifluoroethoxy)methyl)piperidin-1-yl)-2-(4-fluorophenyl)pyridin-4-yl)methyl)-9H-purin-6-amine] | 
 | 1 to 10 | COC[C@@]1(N)CCCN(c2cnc(-c3ccc(OC)c(F)c3)cc2Cn2cnc3c(N)ncnc32)C1 [Example 46] | IC50 [1, 5]: 315 nM
2640 | 1 to 10 | Nc1ncnc2c1ncn2Cc1cc(-c2cccc(F)c2)ncc1N1CCC[C@](N)(CC(=O)O)C1 [Example 58, (S)-2-(3-amino-1-(4-((6-amino-9H-purin-9-yl)methyl)-6-(3-fluorophenyl)pyridin-3-yl)piperidin-3-yl)acetic acid] | 
33300 | 1 to 10 | CN(C)C(=O)C[C@@]1(N)CCCN(c2cnc(-c3ccc(F)c(F)c3)cc2Cn2cnc3c(N)nccc32)C1 [Example 59, (S)-2-(3-amino-1-(4-((4-amino-1H-imidazo[4,5-c]pyridin-1-yl)methyl)-6-(3,4-difluorophenyl)pyridin-3-yl)piperidin-3-yl)-N,N-dimethylacetamide] | 
4250 | 10 to 1000 | CNC(=O)CC1(N)CCCN(c2cnc(-c3ccc(F)c(F)c3)cc2Cn2cnc3c(N)ncc(Cl)c32)C1 (stereo not drawn) [Example 67, 2-(3-amino-1-(4-((4-amino-7-chloro-1H-imidazo[4,5-c]pyridin-1-yl)methyl)-6-(3,4-difluorophenyl)pyridin-3-yl)piperidin-3-yl)-N-methylacetamide] | 
250000 | 10 to 1000 | CNC(=O)CC1(N)CCCN(c2cnc(-c3ccc(F)c(F)c3)cc2Cn2cnc3c(N)nccc32)C1 (stereo not drawn) [Example 72, 2-(3-amino-1-(4-((4-amino-1H-imidazo[4,5-c]pyridin-1-yl)methyl)-6-(3,4-difluorophenyl)pyridin-3-yl)piperidin-3-yl)-N-methylacetamide] | 
115 | 1 to 10 | COc1ccc(-c2cc(Cn3cnc4c(N)ncnc43)c(N3CCC[C@](N)(C(=O)OC(C)C)C3)cn2)cc1F [Example 81, isopropyl (R)-3-amino-1-(4-((6-amino-9H-purin-9-yl)methyl)-6-(3-fluoro-4-methoxyphenyl)pyridin-3-yl)piperidine-3-carboxylate] | 

Second part, the molecule before the results:

SMILES | IC50 [1, 3] [nM] | IC50 (NSD2 [1-1365]; [4]) [nM] | also measured
COC[C@@]1(N)CCCN(c2cnc(-c3cc(Cl)ccc3F)cc2Cn2cnc3c(N)ncnc32)C1 [Example 26, (R)-9-((5-(3-amino-3-(methoxymethyl)piperidin-1-yl)-2-(5-chloro-2-fluorophenyl)pyridin-4-yl)methyl)-9H-purin-6-amine] | 248 | 1 to 10 | IC50 [2]: 375 nM
Nc1ncnc2c1ncn2Cc1cc(-c2cccc(F)c2)ncc1N1CCC[C@](N)(COC2CCC2)C1 [Example 35, (R)-9-((5-(3-amino-3-(cyclobutoxymethyl)piperidin-1-yl)-2-(3-fluorophenyl)pyridin-4-yl)methyl)-9H-purin-6-amine] | 610 | 1 to 10 | 
Nc1ncnc2c1ncn2Cc1cc(-c2ccc(F)cc2)ncc1N1CCC[C@](N)(COC2CCC2)C1 [Example 36, (R)-9-((5-(3-amino-3-(cyclobutoxymethyl)piperidin-1-yl)-2-(4-fluorophenyl)pyridin-4-yl)methyl)-9H-purin-6-amine] | 416 | 10 to 1000 | 
COC[C@@]1(N)CCCN(c2cnc(-c3ccc(OC)c(F)c3)cc2Cn2cnc3c(N)ncnc32)C1 [Example 38, (R)-9-((5-(3-amino-3-(methoxymethyl)piperidin-1-yl)-2-(3-fluoro-4-methoxyphenyl)pyridin-4-yl)methyl)-9H-purin-6-amine] |  | 10 to 1000 | IC50 [1, 5]: 721 nM
COc1ccc(-c2cc(Cn3cnc4c(N)ncnc43)c(N3CCC[C@](N)(COCC(F)(F)F)C3)cn2)cc1F [Example 39, (R)-9-((5-(3-amino-3-((2,2,2-trifluoroethoxy)methyl)piperidin-1-yl)-2-(3-fluoro-4-methoxyphenyl)pyridin-4-yl)methyl)-9H-purin-6-amine] | 2560 | 10 to 1000 | 
Nc1ncnc2c1ncn2Cc1cc(-c2cccc(F)c2)ncc1N1CCC[C@](N)(COC(F)F)C1 [Example 40, (R)-9-((5-(3-amino-3-((difluoromethoxy)methyl)piperidin-1-yl)-2-(3-fluorophenyl)pyridin-4-yl)methyl)-9H-purin-6-amine] | 770 | 10 to 1000 | 
Nc1ncnc2c1ncn2Cc1cc(-c2ccc(F)c(F)c2)ncc1N1CCC[C@](N)(Cc2nccs2)C1 [Example 53, (S)-9-((5-(3-amino-3-(thiazol-2-ylmethyl)piperidin-1-yl)-2-(3,4-difluorophenyl)pyridin-4-yl)methyl)-9H-purin-6-amine] | 327 | 1 to 10 | 
CNC(=O)CC1(N)CCCN(c2cnc(-c3cccc(F)c3)cc2Cn2cnc3c(N)ncnc32)C1 (stereo not drawn) [Example 66, 2-(3-amino-1-(4-((6-amino-9H-purin-9-yl)methyl)-6-(3-fluorophenyl)pyridin-3-yl)piperidin-3-yl)-N-methylacetamide] | 118000 | 10 to 1000 | 
CN(C)C(=O)C[C@@]1(N)CCCN(c2cnc(-c3cccc(F)c3)cc2Cn2cnc3c(N)ncnc32)C1 [Example 70, (S)-2-(3-amino-1-(4-((6-amino-9H-purin-9-yl)methyl)-6-(3-fluorophenyl)pyridin-3-yl)piperidin-3-yl)-N,N-dimethylacetamide] | 9440 | 10 to 1000 | 
Nc1ncnc2c1ncn2Cc1cc(-c2ccc(F)cc2)ncc1N1CCC[C@](N)(CC(F)F)C1 [Example 71, (S)-9-((5-(3-amino-3-(2,2-difluoroethyl)piperidin-1-yl)-2-(4-fluorophenyl)pyridin-4-yl)methyl)-9H-purin-6-amine] | 849 | 10 to 1000 | 
COC(=O)[C@@]1(N)CCCN(c2cnc(-c3cccc(F)c3)cc2Cn2cnc3c(N)ncnc32)C1 [Example 79, methyl (R)-3-amino-1-(4-((6-amino-9H-purin-9-yl)methyl)-6-(3-fluorophenyl)pyridin-3-yl)piperidine-3-carboxylate] | 473 | 1 to 10 | 
COc1ccc(-c2cc(Cn3cnc4c(N)ncnc43)c(N3CCC[C@](N)(C(=O)N(C)C)C3)cn2)cc1F [Example 80, (R)-3-amino-1-(4-((6-amino-9H-purin-9-yl)methyl)-6-(3-fluoro-4-methoxyphenyl)pyridin-3-yl)-N,N-dimethylpiperidine-3-carboxamide] | 4950 | 1 to 10 | 
COc1ccc(-c2cc(Cn3cnc4c(N)ncnc43)c(N3CCC[C@](N)(C(=O)OC(C)(C)C)C3)cn2)cc1F [Example 83, tert-butyl (R)-3-amino-1-(4-((6-amino-9H-purin-9-yl)methyl)-6-(3-fluoro-4-methoxyphenyl)pyridin-3-yl)piperidine-3-carboxylate] | 956 | 10 to 1000 | 
CO/N=C(\C)C1(N)CCCN(c2cnc(-c3ccc(OC)c(F)c3)cc2Cn2cnc3c(N)ncnc32)C1 (stereo not drawn) [Example 96, (E)-1-(3-amino-1-(4-((6-amino-9H-purin-9-yl)methyl)-6-(3-fluoro-4-methoxyphenyl)pyridin-3-yl)piperidin-3-yl)ethan-1-one O-methyl oxime] | 2400 | 10 to 1000 | 
CSCC1(N)CCCN(c2cnc(-c3ccc(F)c(F)c3)cc2Cn2cnc3c(N)ncnc32)C1 (stereo not drawn) [Example 297, 9-((5-(3-amino-3-((methylthio)methyl)piperidin-1-yl)-2-(3,4-difluorophenyl)pyridin-4-yl)methyl)-9H-purin-6-amine] |  |  | IC50 [1, 6]: 2350 nM; IC50 (NSD2 [1-1365]): 10 to 1000 nM
COc1ccc(-c2cc(Cn3cnc4c(N)ncnc43)c(N3CCC[C@](N)(CC(F)(F)F)C3)cn2)cc1F [Example 303, (S)-9-((5-(3-amino-3-(2,2,2-trifluoroethyl)piperidin-1-yl)-2-(3-fluoro-4-methoxyphenyl)pyridin-4-yl)methyl)-9H-purin-6-amine] |  |  | IC50 [1, 6]: 5370 nM; IC50 (NSD2 [1-1365]): 10 to 1000 nM
